Results published in EP2899280A1, “Process for the enzymatic production of oligo-/polyesters” (Ernst-Moritz-Arndt-Universität Greifswald, priority 2014, dated 2015).

Assay: Autohydrolysis of ε-CL (pH-STAT titration)
Assay type: physicochemical
Conditions: Distilled water (pH 7.0), 30 °C, based on 100 mM ε-CL as 100 %
Protocol: All measurements were done with the 877 Titrino Plus from Metrohm (Filderstadt, Germany).
Using the pH-STAT, the autohydrolysis of ε-CL at different temperatures and pH values was determined. Furthermore, it was investigated whether CAL-A is able to hydrolyze ε-CL in an aqueous reaction system. The Bacillus subtilis esterase 2 (BS2) served as positive control in the hydrolysis of ε-caprolactone to 6-hydroxycaproic acid leading to a measureable pH change in the pH-STAT.
For the determination of autohydrolysis, 100 mM ε-CL (Sigma-Aldrich, St- Louis, United States; 97 % purity) were dissolved in 20 ml Tris-HCl buffer (20 mM, pH 7.5) or 20 ml distilled water. The measurement was carried out at 25°C and 30°C over 15 min. For titration, 0.1 N NaOH was used to maintain the pH value constant.

O=C1CCCCCO1 [ε-CL, ε-caprolactone]
Conversion [%] (autohydrolysis): 1.075 ± 0,00090%
